Assay results: US20230103631A1, “PEPTIDES AS SELECTIVE GIP RECEPTOR AGONISTS” (Sanofi, priority 2020, published 2023)
*1 amine or outer side, *2 acyl side, *3 side chain or, on linkers, in order; H or OH if unused. Where a SMILES comes first, the peptide text is derived from it. Side-chain parts run from the residue outwards. [ ]: non-standard residue; d: D form. The star is where a group is joined. C20 diacid = O=C(O)CCCCCCCCCCCCCCCCCCC(=O)*; C18 diacid = O=C(O)CCCCCCCCCCCCCCCCC(=O)*; γGlu = O=C(O)[C@H](CCC(=O)[*:2])N[*:1]; NMeY = CN[C@@H](Cc1ccc(O)cc1)C(=O)O; AEEA = NCCOCCOCC(=O)O; Aib = CC(C)(N)C(=O)O; Sar = CNCC(=O)O

Legend:
Type in all cases: physicochemical
[1] = Chemical stability assessment (relative purity loss by UHPLC-UV); conditions: Chemical stability buffer system A: 20 mM phosphate buffer pH 7.4
Protocol: Purity of a peptide batch was determined through UHPLC/MS prior to chemical stability measurement. The target concentration was […] pure compound. Solutions from solid samples were prepared in the following buffer systems with a concentration of ˜300 μM compound based on the previously determined % purity:
Chemical stability buffer system A) 20 mM phosphate buffer pH 7.4,
Chemical stability buffer system B) 8 mM phosphate buffer pH 7.4, 14 mg/ml propylene glycol, 5.5 mg/ml phenol
Chemical stability buffer system C) 100 mM phosphate buffer pH 7.4, 2.7 mg/ml m-cresol
Prepared solutions were filtered through […] pore size and filled into sterilized glass containers under laminar flow conditions.
Glass containers were stored for 28 days at 5 and 40° C. After this time, the samples were centrifuged for 15 min at 2500 RCF. Then 1.5 μl of the undiluted supernatant were analysed with UHPLC-UV.
The chemical stability was rated through the relative loss of purity calculated by the equation:
[(purity after 28 days at 5° C.)−(purity after 28 days at 40° C.)]/(purity after 28 days at 5° C.)]*100%
The purity is calculated as
[(peak area peptide)/(total peak area)]*100%
The analytical methods used were Analytical UHPLC Method B or C.
Peptide samples were prepared in Chemical stability buffer system A or B and stability was assessed as described in Methods.

[2] = Dynamic light scattering (DLS) for the assessment of physical stability; conditions: DLS buffer system A
Excerpt: A monochromatic and coherent light beam (laser) is used to illuminate the liquid sample. Dynamic Light Scattering (DLS) measures light scattered from particles (1 nm≤radius≤1 μm) that undergo Brownian motion. This motion is induced by collisions between the particles and solvent molecules, that themselves are moving due to their thermal energy. The diffusional motion of the particles results in temporal fluctuations of the scattered light (R. Pecora, Dynamic Light Scattering: Applications of Photon Correlation Spectroscopy, Plenum Press, 1985).
The scattered light intensity fluctuations are recorded and transformed into an autocorrelation function. By fitting the autocorrelation curve to an exponential function, the diffusion coefficient D of the particles in solution can be derived. The diffusion coefficient is then used to calculate the hydrodynamic radius Rh (or apparent Stokes radius) through the Stokes-Einstein equation assuming spherical particles. This calculation is defined in ISO 13321 and ISO 22412 (International Standard ISO13321 Methods for Determination of Particle Size Distribution Part 8: Photon Correlation Spectroscopy, International Organisation for Standardisation (ISO) 1996; International Standard ISO22412 Particle Size Analysis—Dynamic Light Scattering, International Organisation for Standardisation, 2008).
In case of polydisperse samples, the autocorrelation function is the sum of the exponential decays corresponding to each of the species. The temporal fluctuations of the scattered light can then be used to determine the size distribution profile of the particle fraction or family. The first order result is an intensity distribution of scattered light as a function of the particle size. The intensity distribution is naturally weighted according to the scattering intensity of each particle fraction or family. For biological materials or polymers, the particle scattering intensity is proportional to the square of the molecular weight. Thus, small amount of aggregates/agglomerates or presence or a larger particle species can dominate the intensity distribution. However, this distribution can be used as a sensitive detector for the presence of large material in the sample.
The DLS technique produces distributions with inherent peak broadening. The polydispersity index % Pd is a measure of the width of the particle size distribution and is calculated by standard methods described in ISO13321 and ISO22412 [International Standard ISO13321 Methods for Determination of Particle Size Distribution Part 8: Photon Correlation Spectroscopy, International Organisation for Standardisation (ISO) 1996; International Standard ISO22412 Particle Size Analysis—Dynamic Light Scattering, International Organisation for Standardisation (ISO) 2008].
Solutions from solid samples were prepared in buffer systems (see below) with a target concentration of 300 μM compound based on the previously determined % purity.
DLS buffer system A) 20 mM phosphate buffer pH 7.4
DLS buffer system B) 8 mM phosphate buffer pH 7.4, 14 mg/ml propylene glycol, 5.5 mg/ml phenol
DLS buffer system C) 100 mM phosphate buffer pH 7.4, 2.7 mg/ml m-cresol Solutions were filtered through 0.22 μm pore size and filled into sterilized glass containers under laminar flow conditions. For every peptide solution, the apparent hydrodynamic radius (Rh), the corresponding Scattering Intensity (I), and the Mass Contribution (M) were determined as an average over 3-6 replicates from the intensity distribution of the scattered light averaging only high-quality measurements. Relative standard deviations (RSD) for these parameters were calculated from the same number of replicates. […]

[3] = physchem; conditions: for Soluble amount: 24 h, pH 7.4; for solubility at 24 h: pH 7.4, Soluble amount
Method in brief: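 Peptide at 10 mg/ml (purity-corrected) in 100 mM phosphate pH 7.4, alone or with 2.7 mg/ml m-cresol; 1 h gentle agitation, then 24 h at 5 °C. Supernatant after 15 min at 2500 RCF quantified by UHPLC-UV against reference peptide, adjusted for extinction coefficients.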

Row | Structure (SMILES) | Relative purity loss over 28 days at 40° C. [1] [%] | I and SD (Scattering Intensity) ([2]; 0 weeks) [%] | M and SD (Mass Contribution) ([2]; 0 weeks) [%] | apparent Rh and SD ([2]; 0 weeks) [nm] | I and SD (Scattering Intensity) ([2]; 4 weeks storage at 40° C.) [%] | M and SD (Mass Contribution) ([2]; 4 weeks storage at 40° C.) [%] | apparent Rh and SD ([2]; 4 weeks storage at 40° C.) [nm] | Soluble amount [3] [mg/mL] | solubility at 24 h [3] [µg/mL]
1 | CC[C@H](C)[C@H](NC(=O)[C@H](CCCNC(=N)N)NC(=O)[C@H](CC(=O)O)NC(=O)[C@H](CCCCNC(=O)CN(C)C(=O)CN(C)C(=O)CN(C)C(=O)CC[C@H](NC(=O)CCCCCCCCCCCCCCCCC(=O)O)C(=O)O)NC(=O)C(C)(C)NC(=O)[C@@H](NC(=O)[C@H](CO)NC(=O)[C@H](CC(C)C)NC(=O)[C@H](CC(=O)O)NC(=O)[C@H](CO)NC(=O)[C@@H](NC(=O)[C@H](Cc1ccccc1)NC(=O)[C@@H](NC(=O)CNC(=O)[C@H](CCC(=O)O)NC(=O)C(C)(C)NC(=O)[C@@H](N)Cc1ccc(O)cc1)[C@@H](C)O)[C@@H](C)CC)[C@@H](C)CC)C(=O)N[C@@H](Cc1c[nH]cn1)C(=O)N[C@@H](CCC(N)=O)C(=O)NC(C)(C)C(=O)N[C@@H](CCC(=O)O)C(=O)N[C@@H](Cc1ccccc1)C(=O)N[C@H](C(=O)N[C@@H](CCC(=O)O)C(=O)N[C@@H](Cc1c[nH]c2ccccc12)C(=O)N[C@@H](CC(C)C)C(=O)N[C@@H](CC(C)C)C(=O)N[C@@H](C)C(=O)N[C@@H](CCC(N)=O)C(=O)NCC(=O)N1CCC[C@H]1C(=O)N[C@@H](CO)C(=O)N[C@@H](CO)C(=O)NCC(=O)N[C@@H](C)C(=O)N1CCC[C@H]1C(=O)N1CCC[C@H]1C(=O)N1CCC[C@H]1C(=O)N[C@@H](CO)C(N)=O)[C@@H](C)CC [SEQ ID NO: 6, H2N-Y-Aib-E-G-T-F-I-S-D-I-S-I-Aib-K[{N-MeGly}3-gGlu-C18OH]-D-R-I-H-Q-Aib-E-F-I-E-W-I-L-A-Q-G-P-S-S-G-A-P-P-P-S-NH2] (H-Y[Aib]EGTFISDLSI[Aib]K([Sar-Sar-Sar-γGlu-C18 diacid])DRIHQ[Aib]EFIEWLLAQGPSSGAPPPS-NH2) | 5.4 | 86 ± 2 | 100 ± 0 | 1.92 ± 0.03 | 83 ± 1 | 100 ± 0 | 1.94 ± 0.03 | >8.9 | > 10800
2 | CC[C@H](C)[C@H](NC(=O)[C@H](CCCNC(=N)N)NC(=O)[C@H](CC(=O)O)NC(=O)[C@H](CCCCNC(=O)COCCOCCNC(=O)COCCOCCNC(=O)CC[C@H](NC(=O)CCCCCCCCCCCCCCCCCCC(=O)O)C(=O)O)NC(=O)C(C)(C)NC(=O)[C@@H](NC(=O)[C@H](CO)NC(=O)[C@H](CC(C)C)NC(=O)[C@H](CC(=O)O)NC(=O)[C@H](CO)NC(=O)[C@@H](NC(=O)[C@H](Cc1ccccc1)NC(=O)[C@@H](NC(=O)CNC(=O)[C@H](CCC(=O)O)NC(=O)C(C)(C)NC(=O)[C@@H](N)Cc1ccc(O)cc1)[C@@H](C)O)[C@@H](C)CC)[C@@H](C)CC)C(=O)N[C@@H](Cc1c[nH]cn1)C(=O)N[C@@H](CCC(N)=O)C(=O)NC(C)(C)C(=O)N[C@@H](CCC(=O)O)C(=O)N[C@@H](Cc1ccccc1)C(=O)N[C@H](C(=O)N[C@@H](CCC(=O)O)C(=O)N[C@@H](Cc1c[nH]c2ccccc12)C(=O)N[C@@H](CC(C)C)C(=O)N[C@@H](CC(C)C)C(=O)N[C@@H](C)C(=O)N[C@@H](CCC(N)=O)C(=O)NCC(=O)N1CCC[C@H]1C(=O)N[C@@H](CO)C(=O)N[C@@H](CO)C(=O)NCC(=O)N[C@@H](C)C(=O)N1CCC[C@H]1C(=O)N1CCC[C@H]1C(=O)N1CCC[C@H]1C(=O)N[C@@H](CO)C(N)=O)[C@@H](C)CC [SEQ ID NO: 7, H2N-Y-Aib-E-G-T-F-I-S-D-I-S-I-Aib-K[{AEEA}2-gGlu-C20OH]-D-R-I-H-Q-Aib-E-F-I-E-W-I-L-A-Q-G-P-S-S-G-A-P-P-P-S-NH2] (H-Y[Aib]EGTFISDLSI[Aib]K([AEEA-AEEA-γGlu-C20 diacid])DRIHQ[Aib]EFIEWLLAQGPSSGAPPPS-NH2) | 4.5 | 85 ± 2 | 100 ± 0 | 2.06 ± 0.03 | 73 ± 4 | 100 ± 0 | 2.04 ± 0.02 | >5.9 | > 6900
3 | CC[C@H](C)[C@H](NC(=O)[C@H](CCCNC(=N)N)NC(=O)[C@H](CC(=O)O)NC(=O)[C@H](CCCCNC(=O)COCCOCCNC(=O)COCCOCCNC(=O)CC[C@H](NC(=O)CCCCCCCCCCCCCCCCC(=O)O)C(=O)O)NC(=O)C(C)(C)NC(=O)[C@@H](NC(=O)[C@H](CO)NC(=O)[C@H](CC(C)C)NC(=O)[C@H](CC(=O)O)NC(=O)[C@H](CO)NC(=O)[C@@H](NC(=O)[C@H](Cc1ccccc1)NC(=O)[C@@H](NC(=O)CNC(=O)[C@H](CCC(=O)O)NC(=O)C(C)(C)NC(=O)[C@H](Cc1ccc(O)cc1)NC)[C@@H](C)O)[C@@H](C)CC)[C@@H](C)CC)C(=O)N[C@@H](Cc1c[nH]cn1)C(=O)N[C@@H](CCC(N)=O)C(=O)NC(C)(C)C(=O)N[C@@H](CCC(=O)O)C(=O)N[C@@H](Cc1ccccc1)C(=O)N[C@H](C(=O)N[C@@H](CCC(=O)O)C(=O)N[C@@H](Cc1c[nH]c2ccccc12)C(=O)N[C@@H](CC(C)C)C(=O)N[C@@H](CC(C)C)C(=O)N[C@@H](C)C(=O)N[C@@H](CCC(N)=O)C(=O)NCC(=O)N1CCC[C@H]1C(=O)N[C@@H](CO)C(=O)N[C@@H](CO)C(=O)NCC(=O)N[C@@H](C)C(=O)N1CCC[C@H]1C(=O)N1CCC[C@H]1C(=O)N1CCC[C@H]1C(=O)N[C@@H](CO)C(N)=O)[C@@H](C)CC [SEQ ID NO: 8, MeHN-Y-Aib-E-G-T-F-I-S-D-I-S-I-Aib-K[{AEEA}2-gGlu-C180H]-D-R-I-H-Q-Aib-E-F--E-W-I-L-A-Q-G-P-S-S-G-A-P-P-P-S-NH2] (H-[NMeY][Aib]EGTFISDLSI[Aib]K([AEEA-AEEA-γGlu-C18 diacid])DRIHQ[Aib]EFIEWLLAQGPSSGAPPPS-NH2) | 4.7 | 73 ± 3 | 100 ± 0 | 2.06 ± 0.03 | 78 ± 9 | 100 ± 0 | 2.00 ± 0.07 | >6.4 | > 7500
